Test results taken from patent publication US20120214684A1, “COMPOSITIONS AND METHODS FOR DETECTING AND TREATING PROSTATE CARCINOMA” (UNIVERSITY OF FLORIDA RESEARCH FOUNDATION, priority 2009, published 2012).

Tests used:
[1] = tested on: Sox2, Oct3/4, Nanog; test: Western blot of stem cell markers after Docetaxel treatment; assay type: cell-based, human; conditions: 1 nM, 2 nM, 5 nM, 10 nM docetaxel
Procedure: (§1) FIG. 12B is a graph depicting the cell viability of prostate cancer stem cells (CSC) and non-stem prostate cancer cells (Non-CSC) observed for up to 72 hours after treatment with Docetaxel. Cell viability was determined by quantifying the surviving prostate cancer stem cells (CSC) and non-stem prostate cancer cells (Non-CSC) in the samples exposed to 5 nM Docetaxel at Day 0, 1, 2 and 3.
(§2) Prostate cancer stem cells from metastatic prostate cancer cell lines were examined for their sensitivity to conventional cancer treatments (e.g., radiation and chemotherapy). […] Metastatic prostate stem cell lines were also treated with Docetaxel, a frontline treatment for drug-resistant cancer cells.
For the experiments described above, Western-blot analysis was performed by standard methods on isolated cancer stem cells and non-cancer stem cells. Whole cell lysates were prepared in lysis buffer with a commercially available protease inhibitor cocktail (Pierce) at 4° C., followed by centrifugation at 13,000×g for 10 min. Extracts were separated by SDS/PAGE and transferred to nitrocellulose membranes. The membranes were blocked with 5% nonfat dry milk in 20 mM Tris-HCl (pH 7.5), 500 mM sodium chloride, and 0.05% Tween 20 for 2 h and then incubated with commercially available primary antibodies in the same buffer with 1% BSA (fraction V). […]

[2] = tested on: prostate cancer stem cells (CSC) and non-stem prostate cancer cells (Non-CSC); test: Cell viability of CSC and Non-CSC after Docetaxel; assay type: cell-based, human; conditions: 5 nM Docetaxel, Day 0, 1, 2 and 3
Procedure: as §1, §2

CC(=O)O[C@@]12CO[C@@H]1C[C@H](O)[C@@]1(C)C(=O)[C@H](O)C3=C(C)[C@@H](OC(=O)[C@H](O)[C@@H](NC(=O)OC(C)(C)C)c4ccccc4)C[C@@](O)([C@@H](OC(=O)c4ccccc4)[C@H]21)C3(C)C [Docetaxel]
detection of Sox2, Oct 3/4 and Nanog expression [1]: increased detection of Sox2, Oct 3/4 and Nanog expression with increasing dose
cell viability of prostate cancer stem cells vs non-stem prostate cancer cells [2]: more cell viability compared to non-stem prostate cancer cells
